Assay [1] has as its target T1, F508delCFTR (Homo sapiens, UniProt P13569, DEL508-508).
T1 construct: expressed in transfected cells; host or cells: CFBE41o- human lung-derived epithelial cells (CFBE41o-F508delCFTR-HRP), doxycycline-inducible
Briefly: Cell Surface Expression-Horse Radish Peroxidase (CSE-HRP) assay, test compound with co-corrector.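 On Maximum % activity (with co-corrector): percent of 2 µM positive control corrector over DMSO; co-corrector is that same compound.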 It is filed as cell-based. Conditions: with 2 μM co-corrector; for Maximum % activity (with co-corrector): maximum at any tested concentration, normalized to positive control. The essentials:
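Surface-expression read-out: luminol luminescence from an HRP tag in the fourth exofacial loop of F508delCFTR, in doxycycline-induced (0.5 μg/mL, 72 h) CFBE41o- cells. Compound plus 2 μM co-corrector added for 18-24 h at 33° C., 8-point 3-fold series up to 20 μM. EC50 from a sigmoidal fit with variable Hill slope, normalised to positive control, triplicate plates.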

The target of assay [2] is T1, F508delCFTR. Nature of the assay: Cell Surface Expression-Horse Radish Peroxidase (CSE-HRP) assay, test compound without co-corrector.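 On Emax: percent of on-plate 2 µM positive control corrector response over DMSO.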 It is filed as cell-based. Conditions: for Emax: maximum at any tested concentration, normalized to positive control, without co-corrector; for pEC50: test compound without co-corrector. The essentials:
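Compound without co-corrector was tested at eight 3-fold concentrations, top 20 μM, for 18-24 h at 33° C on doxycycline-induced (0.5 μg/mL, 72 h) CFBE41o- F508delCFTR-HRP cells. After DPBS washes, luminol luminescence gave % activity relative to on-plate positive control minus DMSO; EC50 came from triplicate-plate sigmoidal fitting.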

pEC50: −log10 of the molar value.

T1 sequence (P13569 with tags, fused parts or gaps DEL508-508): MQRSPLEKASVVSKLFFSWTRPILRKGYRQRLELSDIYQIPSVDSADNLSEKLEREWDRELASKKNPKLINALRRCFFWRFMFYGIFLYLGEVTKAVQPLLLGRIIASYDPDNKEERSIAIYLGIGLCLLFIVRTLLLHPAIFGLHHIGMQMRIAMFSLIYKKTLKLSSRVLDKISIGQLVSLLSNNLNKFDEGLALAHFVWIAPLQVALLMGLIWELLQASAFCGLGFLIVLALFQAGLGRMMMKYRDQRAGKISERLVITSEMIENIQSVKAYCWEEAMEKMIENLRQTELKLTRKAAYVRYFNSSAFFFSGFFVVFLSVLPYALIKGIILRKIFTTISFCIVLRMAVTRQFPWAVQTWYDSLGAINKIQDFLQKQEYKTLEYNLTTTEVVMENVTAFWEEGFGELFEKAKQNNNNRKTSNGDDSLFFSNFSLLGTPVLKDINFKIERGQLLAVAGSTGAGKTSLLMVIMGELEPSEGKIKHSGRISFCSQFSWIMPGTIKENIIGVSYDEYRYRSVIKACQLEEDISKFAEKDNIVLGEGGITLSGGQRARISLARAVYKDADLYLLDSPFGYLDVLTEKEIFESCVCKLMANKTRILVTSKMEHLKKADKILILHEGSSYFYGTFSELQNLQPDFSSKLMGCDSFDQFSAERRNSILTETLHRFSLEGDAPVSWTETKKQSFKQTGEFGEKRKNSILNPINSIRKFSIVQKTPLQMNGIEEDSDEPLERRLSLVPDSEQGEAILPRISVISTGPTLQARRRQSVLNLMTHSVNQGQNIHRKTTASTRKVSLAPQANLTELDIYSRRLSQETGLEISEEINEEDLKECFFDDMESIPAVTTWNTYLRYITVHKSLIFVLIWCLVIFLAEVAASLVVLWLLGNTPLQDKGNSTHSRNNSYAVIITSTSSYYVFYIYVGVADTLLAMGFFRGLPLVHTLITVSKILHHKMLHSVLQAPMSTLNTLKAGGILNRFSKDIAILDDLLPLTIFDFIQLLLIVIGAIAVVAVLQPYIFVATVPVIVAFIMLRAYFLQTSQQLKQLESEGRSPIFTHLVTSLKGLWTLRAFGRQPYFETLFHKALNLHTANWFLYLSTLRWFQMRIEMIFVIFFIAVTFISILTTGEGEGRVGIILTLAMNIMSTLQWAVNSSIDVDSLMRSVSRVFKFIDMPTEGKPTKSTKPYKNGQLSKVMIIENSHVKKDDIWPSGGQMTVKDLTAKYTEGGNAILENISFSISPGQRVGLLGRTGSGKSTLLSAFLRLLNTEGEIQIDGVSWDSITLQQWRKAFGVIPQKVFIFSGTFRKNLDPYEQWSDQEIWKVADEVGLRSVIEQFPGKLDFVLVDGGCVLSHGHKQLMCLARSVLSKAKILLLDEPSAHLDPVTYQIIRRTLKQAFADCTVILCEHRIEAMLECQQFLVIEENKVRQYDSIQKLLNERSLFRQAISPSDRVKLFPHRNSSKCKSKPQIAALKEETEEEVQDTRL

On to `COc1ccc(C2CCC2)c2c1[C@H](C(=O)NS(=O)(=O)c1cccc3ncn(C)c13)CC2` [Example I-126, (1R)-4-cyclobutyl-7-methoxy-N-(1-methyl-1H-benzimidazole-7-sulfonyl)-2,3-dihydro-1H-indene-1-carboxamide], for which, at F508delCFTR [1], the “Maximum % activity (with co-corrector)” value is “+++ (≥350)” and the pEC50 is above 5.52. At F508delCFTR [2], the Emax is at least 150% and the negative-log EC50 (pEC50) is above 5.52.

For `COc1ccc(C2CCC2)c2c1[C@@H](C(=O)NS(=O)(=O)c1cccc3nc(C)ccc13)CC2` [Example I-127, (1S)-4-cyclobutyl-7-methoxy-N-(2-methylquinoline-5-sulfonyl)-2,3-dihydro-1H-indene-1-carboxamide], at F508delCFTR [1], the “Maximum % activity (with co-corrector)” value is listed as “+++ (≥350)” and the pEC50 was above 5.52. In addition, at F508delCFTR [2], the Emax was at least 150% and the pEC50 was 5.00 to 5.52.

With `COc1ccc(C2CCC2)c2c1[C@H](C(=O)NS(=O)(=O)c1cccc3nc(C)ccc13)CC2` [Example I-128, (1R)-4-cyclobutyl-7-methoxy-N-(2-methylquinoline-5-sulfonyl)-2,3-dihydro-1H-indene-1-carboxamide], at F508delCFTR [1], the “Maximum % activity (with co-corrector)” value is listed as “+++ (≥350)” and the pEC50 is above 5.52. At F508delCFTR [2], this compound had an Emax of at least 150% and a negative-log EC50 (pEC50) of 5.00 to 5.52.

Take `COc1ccc(C2CCC2)c2c1[C@H](C(=O)NS(=O)(=O)c1cccc3c1CCCN3)CC2` [Example I-129, (1R)-4-cyclobutyl-7-methoxy-N-(1,2,3,4-tetrahydroquinoline-5-sulfonyl)-2,3-dihydro-1H-indene-1-carboxamide]: on F508delCFTR [1], the “Maximum % activity (with co-corrector)” value is on record as “+++ (≥350)” and the pEC50 was above 5.52. On F508delCFTR [2], this compound showed an Emax of at least 150% and a pEC50 above 5.52.

Regarding `COc1ccc(C2CCC2)c2c1C(C(=O)NS(=O)(=O)c1cccc3cnn(C)c13)C2` (stereo not shown) [Example I-132, 2-cyclobutyl-5-methoxy-N-(1-methyl-1H-indazole-7-sulfonyl)bicyclo[4.2.0]octa-1,3,5-triene-7-carboxamide], at F508delCFTR [1], the “Maximum % activity (with co-corrector)” value is listed as “+++ (≥350)” and the pEC50 was above 5.52. On F508delCFTR [2], this compound had an Emax of at least 150% and a pEC50 above 5.52.

With `COc1ccc(C2CCC2)c2c1C(C(=O)NS(=O)(=O)c1cccc3ncn(C)c13)CC2` (stereo not shown) [Example I-133, 4-cyclobutyl-7-methoxy-N-(1-methyl-1H-benzimidazole-7-sulfonyl)-2,3-dihydro-1H-indene-1-carboxamide], on F508delCFTR [1], the “Maximum % activity (with co-corrector)” value is given as “+++ (≥350)” and the pEC50 was above 5.52. On F508delCFTR [2], this compound showed an Emax of at least 150% and a pEC50 above 5.52.

As to `COc1ccc(C2CCC2)c2c1C(C(=O)NS(=O)(=O)c1cccn3nccc13)CC2` (stereo not shown) [Example I-135, 4-cyclobutyl-7-methoxy-N-(pyrazolo[1,5-a]pyridine-4-sulfonyl)-2,3-dihydro-1H-indene-1-carboxamide], at F508delCFTR [1], the “Maximum % activity (with co-corrector)” value is “+++ (≥350)” and the pEC50 was above 5.52. On F508delCFTR [2], this compound showed an Emax of at least 150% and a pEC50 of 5.00 to 5.52.

Consider `COc1ccc(C2CCC2)c2c1C(C(=O)NS(=O)(=O)c1cccn3nccc13)C2` (stereo not shown) [Example I-136, 2-cyclobutyl-5-methoxy-N-(pyrazolo[1,5-a]pyridine-4-sulfonyl)bicyclo[4.2.0]octa-1,3,5-triene-7-carboxamide], for which, at F508delCFTR [1], the “Maximum % activity (with co-corrector)” value was “+++ (≥350)” and the pEC50 was above 5.52. In addition, at F508delCFTR [2], the Emax was at least 150% and the pEC50 is above 5.52.

With `COc1ccc(C2CCCO2)c2c1C(C(=O)NS(=O)(=O)c1cccc3ccccc13)CC2` (stereo not shown) [Example I-138, 7-methoxy-N-(naphthalene-1-sulfonyl)-4-(oxolan-2-yl)-2,3-dihydro-1H-indene-1-carboxamide], on F508delCFTR [1], the “Maximum % activity (with co-corrector)” value is given as “+++ (≥350)” and the pEC50 is above 5.52. Moreover, at F508delCFTR [2], the Emax is at least 150% and the pEC50 was 5.00 to 5.52.

Regarding `COCc1ccc(OC)c2c1CCC2C(=O)NS(=O)(=O)c1cccc2ccccc12` (stereo not shown) [Example I-139, 7-methoxy-4-(methoxymethyl)-N-(naphthalene-1-sulfonyl)-2,3-dihydro-1H-indene-1-carboxamide], on F508delCFTR [1], the “Maximum % activity (with co-corrector)” value is “+++ (≥350)” and the pEC50 is above 5.52. Besides, on F508delCFTR [2], the Emax was at least 150% and the pEC50 was 5.00 to 5.52.

In the case of `COc1ccc(CC(C)C)c2c1C(C(=O)NS(=O)(=O)c1cccc3ncccc13)CC2` (stereo not shown) [Example I-140, 7-methoxy-4-(2-methylpropyl)-N-(quinoline-5-sulfonyl)-2,3-dihydro-1H-indene-1-carboxamide], on F508delCFTR [1], the “Maximum % activity (with co-corrector)” value is “+++ (≥350)” and the pEC50 was above 5.52. Further, on F508delCFTR [2], the Emax was at least 150% and the pEC50 is above 5.52.

For the compound `COc1ccc(C2CCC2)c2c1[C@H](C(=O)NS(=O)(=O)c1cccc3cnn(C)c13)C2` [Example I-144, (7R)-2-cyclobutyl-5-methoxy-N-(1-methyl-1H-indazole-7-sulfonyl)bicyclo[4.2.0]octa-1,3,5-triene-7-carboxamide], on F508delCFTR [1], the “Maximum % activity (with co-corrector)” value is recorded as “+++ (≥350)” and the pEC50 is above 5.52. For the same compound, at F508delCFTR [2], the Emax is at least 150% and the pEC50 was above 5.52.

`COc1ccc(C2CCC2)c2c1[C@H](C(=O)NS(=O)(=O)c1cccc3c1CCCN3)C2` [Example I-146, (7R)-2-cyclobutyl-5-methoxy-N-(1,2,3,4-tetrahydroquinoline-5-sulfonyl)bicyclo[4.2.0]octa-1,3,5-triene-7-carboxamide]: at F508delCFTR [1], the “Maximum % activity (with co-corrector)” value is recorded as “+++ (≥350)” and the negative logarithm of the EC50 (pEC50) was above 5.52. At F508delCFTR [2], this compound had an Emax of at least 150% and a pEC50 above 5.52.

As to `COc1cccc2c1C(C(=O)NS(=O)(=O)c1cccc3ccccc13)CC2(C)C` (stereo not shown) [Example I-149, 7-methoxy-3,3-dimethyl-N-(naphthalene-1-sulfonyl)-2,3-dihydro-1H-indene-1-carboxamide], on F508delCFTR [1], the “Maximum % activity (with co-corrector)” value is recorded as “+++ (≥350)” and the pEC50 is above 5.52. On F508delCFTR [2], this compound showed an Emax of at least 150% and a pEC50 above 5.52.

In the case of `COc1ccc(C2CCC2)c2c1[C@H](C(=O)NS(=O)(=O)c1cccn3nccc13)CC2` [Example I-151, (1R)-4-cyclobutyl-7-methoxy-N-(pyrazolo[1,5-a]pyridine-4-sulfonyl)-2,3-dihydro-1H-indene-1-carboxamide], at F508delCFTR [1], the “Maximum % activity (with co-corrector)” value is “+++ (≥350)” and the pEC50 was above 5.52. On F508delCFTR [2], this compound showed an Emax of at least 150% and a pEC50 of 5.00 to 5.52.

With `COc1cccc2c1C(C(=O)NS(=O)(=O)c1cccc3ncccc13)CC2(C)C` (stereo not shown) [Example I-152, 7-methoxy-3,3-dimethyl-N-(quinoline-5-sulfonyl)-2,3-dihydro-1H-indene-1-carboxamide], on F508delCFTR [1], the “Maximum % activity (with co-corrector)” value is “+++ (≥350)” and the pEC50 is above 5.52. At F508delCFTR [2], this compound had an Emax of at least 150% and a pEC50 of 5.00 to 5.52.

As for `COc1cccc2c1[C@@H](C(=O)NS(=O)(=O)c1cccc3ncccc13)CC2(C)C` [Example I-153, (1S)-7-methoxy-3,3-dimethyl-N-(quinoline-5-sulfonyl)-2,3-dihydro-1H-indene-1-carboxamide], at F508delCFTR [1], the “Maximum % activity (with co-corrector)” value is “+++ (≥350)” and the pEC50 was above 5.52. At F508delCFTR [2], this compound showed an Emax of at least 150% and a pEC50 of 5.00 to 5.52.

Turning to `COc1cccc2c1[C@H](C(=O)NS(=O)(=O)c1cccc3ncccc13)CC2(C)C` [Example I-154, (1R)-7-methoxy-3,3-dimethyl-N-(quinoline-5-sulfonyl)-2,3-dihydro-1H-indene-1-carboxamide], at F508delCFTR [1], the “Maximum % activity (with co-corrector)” value is listed as “+++ (≥350)” and the pEC50 was above 5.52. Besides, on F508delCFTR [2], the Emax was at least 150% and the pEC50 was 5.00 to 5.52.

Turning to `COc1ccc(C2CCC2)c2c1[C@H](C(=O)NS(=O)(=O)c1cccc3ncc(C)n13)C2` [Example I-155, (7R)-2-cyclobutyl-5-methoxy-N-(3-methylimidazo[1,2-a]pyridine-5-sulfonyl)bicyclo[4.2.0]octa-1,3,5-triene-7-carboxamide], at F508delCFTR [1], the “Maximum % activity (with co-corrector)” value is “+++ (≥350)” and the pEC50 was above 5.52. On F508delCFTR [2], the Emax was at least 150% and the pEC50 was 5.00 to 5.52.

Regarding `Cc1ccccc1S(=O)(=O)NC(=O)C1CCc2c(Cl)cccc21` (stereo not shown) [Example II-3, 4-chloro-N-(2-methylbenzene-1-sulfonyl)-2,3-dihydro-1H-indene-1-carboxamide], on F508delCFTR [1], the “Maximum % activity (with co-corrector)” value is reported as “+++ (≥350)” and the pEC50 is 5.00 to 5.52. Further, at F508delCFTR [2], the Emax lay within 50 to 150% and the pEC50 is 5.00 to 5.52.

As for `Cc1ccccc1S(=O)(=O)NC(=O)C1CCc2c(-c3ccccc3)cccc21` (stereo not shown) [Example II-36, N-(2-methylbenzene-1-sulfonyl)-4-phenyl-2,3-dihydro-1H-indene-1-carboxamide], at F508delCFTR [1], the “Maximum % activity (with co-corrector)” value is given as “+++ (≥350)” and the pEC50 is 5.00 to 5.52. On F508delCFTR [2], this compound had an Emax of 50 to 150% and a pEC50 of 5.00 to 5.52.

In the case of `O=C(NS(=O)(=O)c1cccc2ccccc12)C1(CN2CCCC2)CCc2c(Cl)cccc21` (stereo not shown) [Example II-47, 4-chloro-N-(naphthalene-1-sulfonyl)-1-[(pyrrolidin-1-yl)methyl]-2,3-dihydro-1H-indene-1-carboxamide], at F508delCFTR [1], the “Maximum % activity (with co-corrector)” value was “++ (≥150 and <350)”; the pEC50 is 5.00 to 5.52. Moreover, at F508delCFTR [2], the Emax is below 50% and the pEC50 is 5.00 to 5.52.

Broadly, the pEC50 is −log10 of the EC50, conventionally taken in molar units. A low value points to a high EC50. Usually Emax stands for the greatest response seen or fitted, relative to the assay's reference.

The values are drawn from US20180244611A1, “Modulators of the Cystic Fibrosis Transmembrane Conductance Regulator Protein and Methods of Use” (AbbVie S.à.r.l., priority 2017, published 2018).
